{
  "source": "the supplement of paper PMC10307832",
  "assay_in_all_cases": "relative viability (nuclei count vs DMSO), 5 days (fraction); higher = more cells survive",
  "key": {"Pazopanib + Dasatinib": {"compound": "Cc1ccc(Nc2nccc(N(C)c3ccc4c(C)n(C)nc4c3)n2)cc1S(N)(=O)=O [Pazopanib] + Cc1nc(Nc2ncc(C(=O)Nc3c(C)cccc3Cl)s2)cc(N2CCN(CCO)CC2)n1 [Dasatinib] (partner 0.075 µM)", "in_short": "(§1)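 Relative viability is defined as nuclei in treated wells over nuclei in vehicle wells. Duplicate plates were run and medians reported. Lung cancer cell lines in 1536-well plates were dosed by pin tool one day after seeding, with one drug or with a fixed anchor-drug dose plus five library-drug doses (not always all listed) in √10 steps, and nuclei were counted after 5 days.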"}, "Pazopanib + Linsitinib": {"compound": "Cc1ccc(Nc2nccc(N(C)c3ccc4c(C)n(C)nc4c3)n2)cc1S(N)(=O)=O [Pazopanib] + C[C@]1(O)C[C@@H](c2nc(-c3ccc4ccc(-c5ccccc5)nc4c3)c3c(N)nccn32)C1 [Linsitinib] (partner 1 µM)", "in_short": "as §1"}, "Ponatinib + Alpelisib": {"compound": "Cc1ccc(C(=O)Nc2ccc(CN3CCN(C)CC3)c(C(F)(F)F)c2)cc1C#Cc1cnc2cccnn12 [Ponatinib] + Cc1nc(NC(=O)N2CCC[C@H]2C(N)=O)sc1-c1ccnc(C(C)(C)C(F)(F)F)c1 [Alpelisib] (partner 2 µM)", "in_short": "as §1"}, "Ponatinib + Vorinostat": {"compound": "Cc1ccc(C(=O)Nc2ccc(CN3CCN(C)CC3)c(C(F)(F)F)c2)cc1C#Cc1cnc2cccnn12 [Ponatinib] + O=C(CCCCCCC(=O)Nc1ccccc1)NO [Vorinostat] (partner 1 µM)", "in_short": "as §1"}},
  "data": [
    {"cell line": "UMC-11", "values": [
      {"measurement": "relative viability", "setting": "Pazopanib + Dasatinib; first compound 0.01 µM", "value": 0.455},
      {"measurement": "relative viability", "setting": "Pazopanib + Dasatinib; first compound 0.03162 µM", "value": 0.459},
      {"measurement": "relative viability", "setting": "Pazopanib + Dasatinib; first compound 0.1 µM", "value": 0.568},
      {"measurement": "relative viability", "setting": "Pazopanib + Dasatinib; first compound 0.3162 µM", "value": 0.467},
      {"measurement": "relative viability", "setting": "Pazopanib + Dasatinib; first compound 1 µM", "value": 0.432},
      {"measurement": "relative viability", "setting": "Pazopanib + Linsitinib; first compound 0.01 µM", "value": 0.974},
      {"measurement": "relative viability", "setting": "Pazopanib + Linsitinib; first compound 0.03162 µM", "value": 1.06},
      {"measurement": "relative viability", "setting": "Pazopanib + Linsitinib; first compound 0.1 µM", "value": 1.1},
      {"measurement": "relative viability", "setting": "Pazopanib + Linsitinib; first compound 0.3162 µM", "value": 1},
      {"measurement": "relative viability", "setting": "Pazopanib + Linsitinib; first compound 1 µM", "value": 1.11},
      {"measurement": "relative viability", "setting": "Ponatinib + Alpelisib; first compound 0.002 µM", "value": 1.07},
      {"measurement": "relative viability", "setting": "Ponatinib + Alpelisib; first compound 0.006325 µM", "value": 1.04},
      {"measurement": "relative viability", "setting": "Ponatinib + Alpelisib; first compound 0.06325 µM", "value": 1.01},
      {"measurement": "relative viability", "setting": "Ponatinib + Alpelisib; first compound 0.2 µM", "value": 0.951},
      {"measurement": "relative viability", "setting": "Ponatinib + Vorinostat; first compound 0.002 µM", "value": 0.411},
      {"measurement": "relative viability", "setting": "Ponatinib + Vorinostat; first compound 0.006325 µM", "value": 0.403},
      {"measurement": "relative viability", "setting": "Ponatinib + Vorinostat; first compound 0.06325 µM", "value": 0.51},
      {"measurement": "relative viability", "setting": "Ponatinib + Vorinostat; first compound 0.2 µM", "value": 0.486}
    ]}
  ]
}
